PubChem BioAssay (NCI)
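These data come from cells grown in 96-well plates and exposed to compound for 48 hours at five concentrations. At the GI50, growth is halved. At the TGI there is no net growth.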

How the values were obtained:
Experiment in all cases: DTP human tumour cell line panel, 48 h
BT-549 breast = test system: BT-549 breast
CCRF-CEM leukemia = test system: CCRF-CEM leukemia
COLO 205 colon = test system: COLO 205 colon
HCC-2998 colon = test system: HCC-2998 colon
HCT-116 colon = test system: HCT-116 colon
HT29 colon = test system: HT29 colon
KM12 colon = test system: KM12 colon
M14 melanoma = test system: M14 melanoma
MDA-MB-231 breast = test system: MDA-MB-231 breast
NCI-H23 lung = test system: NCI-H23 lung
NCI-H460 lung = test system: NCI-H460 lung
NCI/ADR-RES ovarian = test system: NCI/ADR-RES ovarian
SR leukemia = test system: SR leukemia
UACC-257 melanoma = test system: UACC-257 melanoma
UACC-62 melanoma = test system: UACC-62 melanoma

SMILES	TGI (BT-549 breast) [µM]	TGI (CCRF-CEM leukemia) [µM]	TGI (COLO 205 colon) [µM]	TGI (HCC-2998 colon) [µM]	TGI (HCT-116 colon) [µM]	TGI (HT29 colon) [µM]	TGI (KM12 colon) [µM]	TGI (M14 melanoma) [µM]	TGI (MDA-MB-231 breast) [µM]	TGI (NCI-H23 lung) [µM]	TGI (NCI-H460 lung) [µM]	TGI (NCI/ADR-RES ovarian) [µM]	TGI (SR leukemia) [µM]	TGI (UACC-257 melanoma) [µM]	TGI (UACC-62 melanoma) [µM]	GI50 (HT29 colon) [nM]	GI50 (M14 melanoma) [nM]	GI50 (NCI-H460 lung) [nM]
COc1ccc(CCNC(=O)Cc2ccccc2CCO)cc1OC	> 100	> 100	> 100	> 100	> 100	> 100	> 100	> 100	> 100	> 100	> 100	> 100	> 100	> 100	> 100			
CNNC1=NS(=O)(=O)c2cc(C(=O)OC)c(Cl)cc2S1	> 10	> 10	> 10	> 10	> 10	> 10	> 10	> 10	> 10	> 10	> 10	> 10		> 10	> 10			
Cc1occc1C(=S)Nc1ccc(Cl)c(C(=O)OCC2CC2)c1	81.5	91.5	> 100	> 100	> 100	> 100	96.3	> 100	> 100	> 100	> 100	> 100		> 100	> 100			
CN(C)c1ncc(-c2c[nH]c3ccccc23)nc1-c1c[nH]c2ccccc12	49.1		5.2	4.1	12	4.93	5.3	3.99	4.62		4.99	88.3	10.8	3.89	3.89			
COC(=O)c1ccccc1C1CN=NC12Cc1c(C)c3c(c(C)c1C2=O)CCC3 (centres undefined)	> 100	> 100	> 100	> 100	> 100	> 100	> 100	> 100	> 100	> 100	> 100	> 100		> 100	> 100			
CC1=CC(=O)c2cccc(O)c2C1=O	3.13	14.7	4.36	16.8	3.49	10.4	25.3	3.25	3.15	7.32	18.9		> 21.9	3.36	3.68			
CC1(C)C2CCC1(C)C(NC(=O)CCN1CCOCC1)C2 (centres undefined)	> 100	> 100	> 100	> 100	> 100	> 100	> 100	> 100	> 100	> 100	> 100		> 100	> 100	> 100			
CCOc1ccccc1N=NC1C(=O)N(C(=O)CC(=O)Nc2ccccc2Cl)N=C1C (centres undefined)	> 100	> 100	> 100	> 100	> 100	> 100	> 100	> 100	> 100	> 100	> 100	> 100	> 100		> 100			
CC(C)Nc1n[nH]c(=O)n1C(C)C	> 100	> 100	> 100		> 100	> 100	> 100	> 100	> 100	> 100	> 100	> 100	> 100	> 100	> 100			
Clc1ccc(OCc2nnc(CCCCCCCCc3nnc(COc4ccc(Cl)cc4)o3)o2)cc1	> 100		> 100	> 100	28.2	> 100	> 100	> 100	> 100	> 100	> 100	> 100		> 100	> 100			
O=C(c1cccs1)N(C(=S)OCc1ccccn1)c1ccccc1	> 100	> 100	> 100		> 100	> 100	> 100	> 100	> 100	> 100	> 100	> 100	> 100	> 100	> 100			
COc1cccc(NC(=O)c2c(SC)n[nH]c2N)c1	> 100	> 100	> 100	> 100	> 100	> 100	> 100	> 100	> 100		> 100	> 100		> 100	> 100			
Cn1cc(C=C(C#N)C#N)c(=O)n(C)c1=O	> 100		> 100		> 100	> 100	> 100	> 100	> 100	> 100	> 100	> 100		> 100	> 100			
S=c1scc(-c2ccc(Cl)cc2)n1OC1CCCC1	94.7		26.5	71.2	> 100	> 100	> 100	> 100	> 100	> 100	> 100	> 100		> 100	> 100			
COc1cccc2c1[C@H](OC)[C@]13O[C@@]1(C2=O)[C@H](O)[C@H](C)[C@@](O)(C(=O)[C@@H]1O[C@H]1C)[C@@H]3O	1.28	0.555	0.415			1.11	> 36.5	0.395	0.977	0.541	0.617	> 100		0.527	0.877	251	197	211
CCCCNC(=O)C1=C(C)NC(C)=C(C(=O)NCCCC)C1	> 100		> 100	> 100	> 100	> 100	> 100	> 100	> 100	> 100	> 100	> 100		> 100	> 100			
